≈ marks a conversion by molar mass, not a printed value. Like-named read-outs stand apart in the source and are kept apart here.
Columns and labels:
Streptococcus pyogenes = test: Expanded panel broth microdilution MIC/MBC; format: cell-based; conditions: Streptococcus pyogenes
Enterococcus faecalis = test: Expanded panel broth microdilution MIC/MBC; format: cell-based
[1] = test system: Streptococcus constellatus; test: Expanded panel broth microdilution MIC; format: cell-based
[2] = test system: Staphylococcus lugdunensis; test: Expanded panel broth microdilution MIC; format: cell-based
S. aureus = test: Expanded panel broth microdilution MIC/MBC; conditions: for MIC: Staphylococcus aureus

## CCCCCCCCCCNC(=O)CNC1(C)CC(OC2C(Oc3c4cc5cc3Oc3ccc(cc3Cl)C(O)C3NC(=O)C(NC(=O)C5NC(=O)C(CC(N)=O)NC(=O)C(NC(=O)C(CC(C)C)NC)C(O)c5ccc(c(Cl)c5)O4)c4ccc(O)c(c4)-c4c(O)cc(O)cc4C(C(=O)O)NC3=O)OC(CO)C(O)C2O)OC(C)C1O (stereo not shown) [RV94]
Streptococcus pyogenes; ATCC19615, S. pyogenes ATCC 19615, read-out: MIC
  MIC: 0.015 µg/mL (≈ 9.11 nM)
Streptococcus pyogenes; S. pyogenes MMX 946, ermR, read-out: MIC
  MIC: 0.008 µg/mL (≈ 4.86 nM)
Streptococcus pyogenes; S. pyogenes MMX 8778, read-out: MIC
  MIC: 0.008 µg/mL (≈ 4.86 nM)
Streptococcus pyogenes; S. pyogenes ermR, 1 isolate, read-out: MIC
  MIC: 0.008 µg/mL (≈ 4.86 nM)
Streptococcus pyogenes; S. pyogenes, 2 isolates, read-out: MIC (median)
  MIC: 0.012 µg/mL (≈ 7.29 nM)
Enterococcus faecalis; E. faecalis VSE, MBC on one organism
  MIC:MBC: >8
Enterococcus faecalis; E. faecalis VanA VRE
  MIC:MBC: >8
Enterococcus faecalis; E. faecalis VanA VRE, 1 isolate
  MIC: 0.03 µg/mL (≈ 18.2 nM)
Enterococcus faecalis; Enterococcus faecalis, ATCC29212, E. faecalis ATCC 29212, VSE, read-out: MIC
  MIC: 0.03 µg/mL (≈ 18.2 nM)
Enterococcus faecalis; Enterococcus faecalis, E. faecalis MMX 1086, VanA VRE, read-out: MIC
  MIC: 0.03 µg/mL (≈ 18.2 nM)
Enterococcus faecalis; Enterococcus faecalis, E. faecalis MMX 4176, VSE, read-out: MIC
  MIC: 0.03 µg/mL (≈ 18.2 nM)
Enterococcus faecalis; Enterococcus faecalis, E. faecalis VSE, 2 isolates, read-out: MIC (median)
  MIC: 0.03 µg/mL (≈ 18.2 nM)
[1]; S. constellatus AGS, 1 isolate
  MIC: 0.008 µg/mL (≈ 4.86 nM)
[1]; Streptococcus constellatus, S. constellatus (AGS) MMX 5677, read-out: MIC
  MIC: 0.008 µg/mL (≈ 4.86 nM)
[2]; S. lugdunensis, 1 isolate
  MIC: 0.015 µg/mL (≈ 9.11 nM)
[2]; Staphylococcus lugdunensis, S. lugdunensis MMX 8724, read-out: MIC
  MIC: 0.015 µg/mL (≈ 9.11 nM)
S. aureus; S. aureus MRSA, MBC median of n = 5
  MIC:MBC: 1
S. aureus; S. aureus MSSA, MBC on one organism
  MIC:MBC: 8
S. aureus; S. aureus VISA, MBC median of n = 2
  MIC:MBC: 2
S. aureus; S. aureus hVISA, MBC on one organism
  MIC:MBC: 8
S. aureus; ATCC13709 / MSSA, S. aureus ATCC 13709, MSSA
  MIC: 0.03 µg/mL (≈ 18.2 nM)
S. aureus; ATCC29213 / MSSA, S. aureus ATCC 29213, MSSA
  MIC: 0.015 µg/mL (≈ 9.11 nM)
S. aureus; ATCC43300 / MRSA, S. aureus ATCC 43300, MRSA
  MIC: 0.015 µg/mL (≈ 9.11 nM)
S. aureus; ATCCBAA1556|MRSA|USA300, S. aureus ATCC BAA-1556, MRSA, USA300 (expanded panel)
  MIC: 0.03 µg/mL (≈ 18.2 nM)
S. aureus; ATCCBAA1756|MRSA|NRS384|USA300, S. aureus NRS 384, ATCC BAA-1756, MRSA, USA300
  MIC: 0.015 µg/mL (≈ 9.11 nM)
S. aureus; MRSA / NRS123 / USA400, S. aureus NRS123, MRSA, USA400
  MIC: 0.015 µg/mL (≈ 9.11 nM)
S. aureus; MRSA / NRS725 / USA300, S. aureus NRS725, MRSA, USA300
  MIC: 0.015 µg/mL (≈ 9.11 nM)
S. aureus; MRSA / USA300, S. aureus MMX 3982, MRSA, USA300
  MIC: 0.015 µg/mL (≈ 9.11 nM)
S. aureus; MRSA, S. aureus MMX 7899, MRSA
  MIC: 0.015 µg/mL (≈ 9.11 nM)
S. aureus; MRSA, S. aureus MMX 7900, MRSA
  MIC: 0.015 µg/mL (≈ 9.11 nM)
S. aureus; MRSA, S. aureus MMX 7901, MRSA
  MIC: 0.015 µg/mL (≈ 9.11 nM)
S. aureus; MRSA, S. aureus MMX 7902, MRSA
  MIC: 0.03 µg/mL (≈ 18.2 nM)
S. aureus; MRSA, S. aureus MMX 7903, MRSA
  MIC: 0.015 µg/mL (≈ 9.11 nM)
S. aureus; MRSA, read-out: MIC (median), S. aureus MRSA, 12 isolates
  MIC: 0.015 µg/mL (≈ 9.11 nM)
S. aureus; MSSA, S. aureus MMX 7907, MSSA
  MIC: 0.03 µg/mL (≈ 18.2 nM)
S. aureus; MSSA, S. aureus MMX 7908, MSSA
  MIC: 0.015 µg/mL (≈ 9.11 nM)
S. aureus; MSSA, read-out: MIC (median), S. aureus MSSA, 4 isolates
  MIC: 0.023 µg/mL (≈ 14 nM)
S. aureus; NRS1 / VISA, S. aureus NRS1, VISA, Mu50
  MIC: 0.25 µg/mL (≈ 152 nM)
S. aureus; NRS2, S. aureus NRS2, hVISA;Mu3
  MIC: 0.03 µg/mL (≈ 18.2 nM)
S. aureus; NRS4 / VISA, S. aureus NRS4, VISA
  MIC: 0.06 µg/mL (≈ 36.4 nM)
S. aureus; NRS13 / VISA, S. aureus NRS13, VISA
  MIC: 0.12 µg/mL (≈ 72.9 nM)
S. aureus; NRS22 / VISA, S. aureus NRS22, VISA
  MIC: 0.12 µg/mL (≈ 72.9 nM)
S. aureus; NRS23, S. aureus NRS23, hVISA
  MIC: 0.12 µg/mL (≈ 72.9 nM)
S. aureus; NRS52 / VISA, S. aureus NRS52, VISA
  MIC: 0.06 µg/mL (≈ 36.4 nM)
S. aureus; VISA, read-out: MIC (median), S. aureus VISA, 5 isolates
  MIC: 0.12 µg/mL (≈ 72.9 nM)
S. aureus; VRSA, read-out: MIC (median), S. aureus VRSA, 12 isolates (JMI Laboratories)
  MIC: 4 µg/mL (≈ 2430 nM)
S. aureus; read-out: MIC (median), S. aureus hVISA, 2 isolates
  MIC: 0.08 µg/mL (≈ 48.6 nM)
S. aureus; VISA
  MIC, fold activity reduction compared to RV40: 2 fold
  MIC, fold enhancement in comparison to vancomycin: 30 fold
S. aureus; hVISA
  MIC, fold activity reduction compared to RV40: 3 fold
  MIC, fold enhancement in comparison to vancomycin: 18 fold
S. aureus; hVISA and VISA (both strains)
  MIC, fold enhancement compared to telavancin: 2 fold
